Test results as given in paper PMC3597565, “Display of Multimeric Antimicrobial Peptides on the Escherichia coli Cell Surface and Its Application as Whole-Cell Antibiotics” (PLoS ONE, 2013).
≈ marks a conversion by molar mass, not a printed value. Blank lines part the entries; values can stand above or below the compound they belong to. Peptide text beside a SMILES is read from it.

Legend:
Format in all cases: cell-based
[1] = tested on: Bacillus subtilis (ATCC 62037); conditions: ATCC 62037, 3 h; for MIC: pH 7.4
Procedure: (§1) The antimicrobial activity of each peptide was determined against eight representative microorganisms, including Gram-positive and Gram-negative bacteria and fungi, using the broth micro dilution assay as described by Park et al. with a slight modification. Briefly, mid-logarithmic phase cells were diluted to 1×10^5 cfu/ml in 10 mM sodium phosphate buffer (NAPB), pH 7.4. Each well of 96-well propylene micro titer plates (Costar, Cambridge, MA, USA) was filled with 90 µl of the diluted cell suspension and 10 µl of serially diluted peptide samples. After incubation for 3 h, fresh medium (trypticase soy broth for bacteria and Saboraud' medium for fungi) was added to the mixture and incubated at 37°C (bacteria) or 30°C (fungi) for an additional 12 h. Inhibition of growth was determined by measuring the absorbance at 620 nm with a Model 550 Microplate Reader (Bio-Rad, Hercules, CA, USA). […] The MIC values were calculated as an average of two independent experiments performed in triplicate.
(§2) ^a To determine the effect of protease digestion on the antimicrobial activity of Buf IIIb-L, synthetic Buf IIIb-L was first incubated with pepsin, trypsin, or chymotrypsin. After incubation at 37 °C for 30 min, the antimicrobial activity of the digested peptide was determined against eight representative microorganisms, including Gram-positive and Gram-negative bacteria and fungi, as described in Materials and Methods.

[2] = tested on: Saccharomyces cerevisiae (ATCC 44774); conditions: ATCC 44774, 3 h; for MIC: pH 7.4
Procedure: as §1, §2

[3] = tested on: Escherichia coli (ATCC 27325); conditions: ATCC 27325, 3 h; for MIC: pH 7.4
Procedure: as §1, §2

[4] = tested on: Staphylococcus aureus (ATCC 15752); conditions: ATCC 15752, 3 h; for MIC: pH 7.4
Procedure: as §1, §2

[5] = tested on: Pseudomonas putida (ATCC 17426); conditions: ATCC 17426, 3 h; for MIC: pH 7.4
Procedure: as §1, §2

[6] = tested on: Salmonella enteritidis (ATCC 13076); conditions: ATCC 13076, 3 h; for MIC: pH 7.4
Procedure: as §1, §2

[7] = tested on: Streptococcus mutans (ATCC 25175); conditions: ATCC 25175, 3 h; for MIC: pH 7.4
Procedure: as §1, §2

[8] = tested on: Candida albicans (ATCC 10231); conditions: ATCC 10231, 3 h; for MIC: pH 7.4
Procedure: as §1, §2

[9] = tested on: Listeria monocytogenes (ATCC 15313); conditions: ATCC 15313, 3 h
Procedure: as §1, with “After incubation for 3 h, fresh medium (trypticase soy broth for bacteria and Saboraud' medium for fungi) was added to the mixture and incubated at 37°C (bacteria) or 30°C (fungi) for an additional 12 h.” left out
Antimicrobial activities of the pepsin-digested peptide mixtures obtained from E. coli cells with surface-expressed LO-Bn fusion proteins were tested against two oral infectious pathogens, Salmonella enteritidis (ATCC 13076) and Listeria monocytogenes (ATCC 15313) as described above except using 10 µl of the 20-fold diluted peptide mixtures obtained from 1×10^11 E. coli cells with surface-expressed LO-Bn fusion proteins instead of synthetic peptide. Growth of cells was determined by measuring absorbance at 620 nm with a Model 550 Microplate Reader (Bio-Rad). […]

[10] = tested on: eight representative microorganisms, including Gram-positive and Gram-negative bacteria and fungi; conditions: 3 h
Procedure: as §1

MIC [1]: 2 µg/mL (≈ 0.717 µM)
MIC [2]: 0.5 µg/mL (≈ 0.179 µM)
MIC [3]: 4 µg/mL (≈ 1.43 µM)
MIC [4]: 2 µg/mL (≈ 0.717 µM)
MIC [5]: 4 µg/mL (≈ 1.43 µM)
MIC [6]: 2 µg/mL (≈ 0.717 µM)
MIC [7]: 2 µg/mL (≈ 0.717 µM)
MIC [8]: 0.5 µg/mL (≈ 0.179 µM)
Compound: CC[C@H](C)[C@H](NC(=O)[C@@H]1CCCN1C(=O)[C@H](Cc1c[nH]c2ccccc12)NC(=O)[C@H](CCC(N)=O)NC(=O)[C@H](CCCNC(=N)N)NC(=O)[C@@H](NC(=O)[C@@H](NC(=O)[C@@H](N)CCCNC(=N)N)C(C)C)C(C)C)C(=O)NCC(=O)N[C@@H](CCCNC(=N)N)C(=O)N[C@H](C(=O)N[C@H](C(=O)N[C@@H](CCCNC(=N)N)C(=O)N[C@@H](CCCNC(=N)N)C(=O)N[C@H](C(=O)N[C@H](C(=O)N[C@@H](CCCNC(=N)N)C(=O)N[C@@H](CCCNC(=N)N)C(=O)N[C@H](C(=O)N[C@H](C(=O)N[C@@H](CCCNC(=N)N)C(=O)N[C@@H](Cc1ccccc1)C(=O)O)C(C)C)C(C)C)C(C)C)C(C)C)C(C)C)C(C)C [Buf IIIb-F] (H-RVVRQWPIGRVVRRVVRRVVRF-OH)

MIC [9]: 2 µg/mL (≈ 0.726 µM)
MIC of Buf IIIb-L digested with Chymotrypsin [1]: >256 µg/mL
MIC of Buf IIIb-L digested with Pepsin [1]: 2 µg/mL
MIC of Buf IIIb-L digested with Trypsin [1]: >256 µg/mL
MIC [1]: 2 µg/mL (≈ 0.726 µM)
MIC of Buf IIIb-L digested with Chymotrypsin [2]: >256 µg/mL
MIC of Buf IIIb-L digested with Pepsin [2]: 2 µg/mL
MIC of Buf IIIb-L digested with Trypsin [2]: >256 µg/mL
MIC [2]: 2 µg/mL (≈ 0.726 µM)
MIC of Buf IIIb-L digested with Chymotrypsin [3]: >256 µg/mL
MIC of Buf IIIb-L digested with Pepsin [3]: 2 µg/mL
MIC of Buf IIIb-L digested with Trypsin [3]: >256 µg/mL
MIC [3]: 2 µg/mL (≈ 0.726 µM)
MIC of Buf IIIb-L digested with Chymotrypsin [4]: >256 µg/mL
MIC of Buf IIIb-L digested with Pepsin [4]: 2 µg/mL
MIC of Buf IIIb-L digested with Trypsin [4]: >256 µg/mL
MIC [4]: 2 µg/mL (≈ 0.726 µM)
MIC of Buf IIIb-L digested with Chymotrypsin [5]: >256 µg/mL
MIC of Buf IIIb-L digested with Pepsin [5]: 4 µg/mL
MIC of Buf IIIb-L digested with Trypsin [5]: >256 µg/mL
MIC [5]: 4 µg/mL (≈ 1.45 µM)
MIC of Buf IIIb-L digested with Chymotrypsin [6]: >256 µg/mL
MIC of Buf IIIb-L digested with Pepsin [6]: 4 µg/mL
MIC of Buf IIIb-L digested with Trypsin [6]: >256 µg/mL
MIC [6]: 4 µg/mL (≈ 1.45 µM)
MIC of Buf IIIb-L digested with Chymotrypsin [7]: >256 µg/mL
MIC of Buf IIIb-L digested with Pepsin [7]: 2 µg/mL
MIC of Buf IIIb-L digested with Trypsin [7]: >256 µg/mL
MIC [7]: 2 µg/mL (≈ 0.726 µM)
MIC of Buf IIIb-L digested with Chymotrypsin [8]: >256 µg/mL
MIC of Buf IIIb-L digested with Pepsin [8]: 2 µg/mL
MIC of Buf IIIb-L digested with Trypsin [8]: >256 µg/mL
MIC [8]: 2 µg/mL (≈ 0.726 µM)
Compound: CC[C@H](C)[C@H](NC(=O)[C@@H]1CCCN1C(=O)[C@H](Cc1c[nH]c2ccccc12)NC(=O)[C@H](CCC(N)=O)NC(=O)[C@H](CCCNC(=N)N)NC(=O)[C@@H](NC(=O)[C@@H](NC(=O)[C@@H](N)CCCNC(=N)N)C(C)C)C(C)C)C(=O)NCC(=O)N[C@@H](CCCNC(=N)N)C(=O)N[C@H](C(=O)N[C@H](C(=O)N[C@@H](CCCNC(=N)N)C(=O)N[C@@H](CCCNC(=N)N)C(=O)N[C@H](C(=O)N[C@H](C(=O)N[C@@H](CCCNC(=N)N)C(=O)N[C@@H](CCCNC(=N)N)C(=O)N[C@H](C(=O)N[C@H](C(=O)N[C@@H](CCCNC(=N)N)C(=O)N[C@@H](CC(C)C)C(=O)O)C(C)C)C(C)C)C(C)C)C(C)C)C(C)C)C(C)C [Buf IIIb-L] (H-RVVRQWPIGRVVRRVVRRVVRL-OH)

MIC [1]: 2 µg/mL (≈ 0.713 µM)
MIC [2]: 1 µg/mL (≈ 0.356 µM)
MIC [3]: 4 µg/mL (≈ 1.43 µM)
MIC [4]: 2 µg/mL (≈ 0.713 µM)
MIC [5]: 2 µg/mL (≈ 0.713 µM)
MIC [6]: 2 µg/mL (≈ 0.713 µM)
MIC [7]: 2 µg/mL (≈ 0.713 µM)
MIC [8]: 4 µg/mL (≈ 1.43 µM)
Compound: CC[C@H](C)[C@H](NC(=O)[C@@H]1CCCN1C(=O)[C@H](Cc1c[nH]c2ccccc12)NC(=O)[C@H](CCC(N)=O)NC(=O)[C@H](CCCNC(=N)N)NC(=O)[C@@H](NC(=O)[C@@H](NC(=O)[C@@H](N)CCCNC(=N)N)C(C)C)C(C)C)C(=O)NCC(=O)N[C@@H](CCCNC(=N)N)C(=O)N[C@H](C(=O)N[C@H](C(=O)N[C@@H](CCCNC(=N)N)C(=O)N[C@@H](CCCNC(=N)N)C(=O)N[C@H](C(=O)N[C@H](C(=O)N[C@@H](CCCNC(=N)N)C(=O)N[C@@H](CCCNC(=N)N)C(=O)N[C@H](C(=O)N[C@H](C(=O)N[C@@H](CCCNC(=N)N)C(=O)N[C@@H](Cc1ccc(O)cc1)C(=O)O)C(C)C)C(C)C)C(C)C)C(C)C)C(C)C)C(C)C [Buf IIIb-Y] (H-RVVRQWPIGRVVRRVVRRVVRY-OH)

MIC, range over the microorganisms of Table 2 [10]: 0.5 to 2 µg/mL
MIC [1]: 2 µg/mL (≈ 0.757 µM)
MIC [2]: 0.5 µg/mL (≈ 0.189 µM)
MIC [3]: 1 µg/mL (≈ 0.378 µM)
MIC [4]: 2 µg/mL (≈ 0.757 µM)
MIC [5]: 1 µg/mL (≈ 0.378 µM)
MIC [6]: 2 µg/mL (≈ 0.757 µM)
MIC [7]: 2 µg/mL (≈ 0.757 µM)
MIC [8]: 1 µg/mL (≈ 0.378 µM)
Compound: CC[C@H](C)[C@H](NC(=O)[C@@H]1CCCN1C(=O)[C@H](Cc1c[nH]c2ccccc12)NC(=O)[C@H](CCC(N)=O)NC(=O)[C@H](CCCNC(=N)N)NC(=O)[C@@H](NC(=O)[C@@H](NC(=O)[C@@H](N)CCCNC(=N)N)C(C)C)C(C)C)C(=O)NCC(=O)N[C@@H](CCCNC(=N)N)C(=O)N[C@H](C(=O)N[C@H](C(=O)N[C@@H](CCCNC(=N)N)C(=O)N[C@@H](CCCNC(=N)N)C(=O)N[C@H](C(=O)N[C@H](C(=O)N[C@@H](CCCNC(=N)N)C(=O)N[C@@H](CCCNC(=N)N)C(=O)N[C@H](C(=O)N[C@H](C(=O)N[C@@H](CCCNC(=N)N)C(=O)O)C(C)C)C(C)C)C(C)C)C(C)C)C(C)C)C(C)C [Buf IIIb] (H-RVVRQWPIGRVVRRVVRRVVR-OH)

MIC [1]: 1 µg/mL (≈ 0.391 µM)
MIC [2]: 2 µg/mL (≈ 0.781 µM)
MIC [3]: 1 µg/mL (≈ 0.391 µM)
MIC [4]: 2 µg/mL (≈ 0.781 µM)
MIC [5]: 2 µg/mL (≈ 0.781 µM)
MIC [6]: 2 µg/mL (≈ 0.781 µM)
MIC [7]: 2 µg/mL (≈ 0.781 µM)
MIC [8]: 2 µg/mL (≈ 0.781 µM)
Compound: CC(C)C[C@H](NC(=O)CNC(=O)[C@H](C)NC(=O)[C@@H](N)CCCNC(=N)N)C(=O)N[C@@H](CCC(N)=O)C(=O)N[C@@H](Cc1ccccc1)C(=O)N1CCC[C@H]1C(=O)N[C@H](C(=O)NCC(=O)N[C@@H](CCCNC(=N)N)C(=O)N[C@@H](CC(C)C)C(=O)N[C@@H](CC(C)C)C(=O)N[C@@H](CCCNC(=N)N)C(=O)N[C@@H](CCCNC(=N)N)C(=O)N[C@@H](CC(C)C)C(=O)N[C@@H](CC(C)C)C(=O)N[C@@H](CCCNC(=N)N)C(=O)N[C@@H](CCCNC(=N)N)C(=O)N[C@@H](CC(C)C)C(=O)N[C@@H](CC(C)C)C(=O)N[C@@H](CCCNC(=N)N)C(=O)O)C(C)C [Buforin llb, reference compound] (H-RAGLQFPVGRLLRRLLRRLLR-OH; N-terminus and C-terminus assumed)
